Reference: ChEMBL document CHEMBL1130896, “Nucleosides and nucleotides. 176. 2'-Deoxy-2'-hydroxylaminocytidine: a new antitumor nucleoside that inhibits DNA synthesis although it has a ribonucleoside structure” (Bioorg Med Chem Lett, 1998)

Assays:
[1] = system: A-375; experiment: In vitro antitumor activity against A375cell line extracted form melanoma; format: functional, cell-based; settings: Homo sapiens
[2] = system: COLO 320DM; experiment: In vitro antitumor activity against COLO 320DM cell line extracted form colon adenocarcinoma; format: functional, cell-based; settings: Homo sapiens
[3] = system: HL-60; experiment: In vitro antitumor activity against HL-60 cell line extracted formpromyelocytic leukemia; format: functional, cell-based; settings: Homo sapiens
[4] = system: HT-1080; experiment: In vitro antitumor activity against HT1080 cell line extracted form fibrosarcoma; format: functional, cell-based; settings: Homo sapiens
[5] = system: Huh-7; experiment: In vitro antitumor activity against HuH7 cell line extracted form hepatoma; format: functional, cell-based; settings: Homo sapiens
[6] = system: L1210; experiment: In vitro antitumor activity using the incorporation of thymidine and uridine into DNA of L1210 cells at time 3 hr; format: functional, Mus musculus
[7] = system: L1210; experiment: In vitro antitumor activity using the incorporation of thymidine and uridine into RNA of L1210 cells at time 2 hr; format: functional, Mus musculus
[8] = system: L1210; experiment: In vitro antitumor activity using the incorporation of thymidine and uridine into DNA of L1210 cells at time 1 hr; format: functional, Mus musculus
[9] = system: L1210; experiment: In vitro antitumor activity using the incorporation of thymidine and uridine into DNA of L1210 cells at time 2 hr; format: functional, Mus musculus
[10] = system: L1210; experiment: In vitro antitumor activity using the incorporation of thymidine and uridine into RNA of L1210 cells at time 1 hr; format: functional, Mus musculus
[11] = system: L1210; experiment: In vitro antitumor activity using the incorporation of thymidine and uridine into RNA of L1210 cells at time 3 hr; format: functional, Mus musculus
[12] = system: K562; experiment: In vitro antitumor activity against K562 cell line extracted formchronic myelogenous leukemia; format: functional, cell-based; settings: Homo sapiens
[13] = system: MIA PaCa-2; experiment: In vitro antitumor activity against MiaPaCa-2 cell line extracted form pancreas adenocarcinoma; format: functional, cell-based; settings: Homo sapiens
[14] = system: MCF7; experiment: In vitro antitumor activity against MCF-7 cell line extracted form mammary carcinoma; format: functional, cell-based; settings: Homo sapiens
[15] = system: PANC-1; experiment: In vitro antitumor activity against PANC cell line extracted form pancreas adenocarcinoma; format: functional, cell-based; settings: Homo sapiens
[16] = system: CCRF-CEM; experiment: In vitro antitumor activity against CCRF-CEM cell line extracted form acute lymphoblastic leukemia; format: functional, cell-based; settings: Homo sapiens

Nc1ccn(C2OC(CO)[C@@H](O)[C@H]2NO)c(=O)n1 (stereo partly specified)
IC50 [1]: 890 nM | IC50 [2]: 8930 nM | IC50 [3]: 5760 nM | IC50 [4]: 2530 nM | IC50 [5]: 1470 nM | Inhibition [6]: 95% | Inhibition [7]: 20% | Inhibition [8]: 83% | Inhibition [9]: 98% | Inhibition [10]: 21% | Inhibition [11]: 23% | IC50 [12]: 2770 nM | IC50 [13]: 4000 nM | IC50 [14]: 1300 nM | IC50 [15]: 69100 nM | IC50 [16]: 1730 nM
